Results from PubChem BioAssay AID256 (DTP/NCI, 2004).
Where “and” joins values, the source holds several entries; their conditions need not be identical. Equal entries are not always repeated. Toxic doses and inconclusive results are not listed. The calls were made as follows: active = survival T/C of 150% or more; inactive = T/C below 125% in these data.

System: CD2F1 mice, L1210 leukemia ip, survival T/C
Assay: NCI In Vivo Anticancer Drug Screen. Data for tumor model L1210 Leukemia (intraperitoneal) in CD2F1 (CDF1) mice
Conditions: higher = longer survival
Summary of the method: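 Each value reflects a quotient of treated over vehicle control outcomes in mice with a transplanted tumor.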

[1] = endpoint: mean survival time, dose: 100.0 mg/kg/injection, schedule: Q01DX009 (ip), vehicle: saline with Tween-80
[2] = endpoint: mean survival time, dose: 200.0 mg/kg/injection, schedule: Q01DX009 (ip), vehicle: saline with Tween-80
[3] = endpoint: mean survival time, dose: 200.0 mg/kg/injection, schedule: Q01DX001 (ip), vehicle: saline with Tween-80
[4] = endpoint: mean survival time, dose: 50.0 mg/kg/injection, schedule: Q01DX009 (ip), vehicle: saline with Tween-80
[5] = endpoint: mean survival time, dose: 100.0 mg/kg/injection, schedule: Q04DX003 (ip), vehicle: saline with Tween-80
[6] = endpoint: mean survival time, dose: 200.0 mg/kg/injection, schedule: Q04DX003 (ip), vehicle: saline with Tween-80
[7] = endpoint: mean survival time, dose: 400.0 mg/kg/injection, schedule: Q04DX003 (ip), vehicle: saline with Tween-80

Measured: T/C

CC1=C(/C=C/C(C)=C/C=C/C(C)=C/C=O)C(C)(C)CCC1
inactive: endpoint: median survival time, dose: 6.25 mg/kg/injection, schedule: Q01DX005 (ip), vehicle: saline with Tween-80 105 % of control | endpoint: median survival time, dose: 12.5 mg/kg/injection, schedule: Q01DX005 (ip), vehicle: saline with Tween-80 100 % of control | endpoint: median survival time, dose: 25.0 mg/kg/injection, schedule: Q01DX005 (ip), vehicle: saline with Tween-80 97 % of control and 103 % of control | endpoint: median survival time, dose: 50.0 mg/kg/injection, schedule: Q01DX005 (ip), vehicle: saline with Tween-80 100 % of control and 101 % of control | endpoint: median survival time, dose: 100.0 mg/kg/injection, schedule: Q01DX005 (ip), vehicle: saline with Tween-80 104 % of control

Cc1nc(N)[nH]c(=O)c1[N+](=O)[O-]
inactive: endpoint: mean survival time, dose: 100.0 mg/kg/injection, schedule: Q04DX003 (ip), vehicle: other 108 % of control | endpoint: mean survival time, dose: 200.0 mg/kg/injection, schedule: Q04DX003 (ip), vehicle: other 113 % of control

NC(C(=O)O)c1ccc(CBr)cc1 (stereo not given)
inactive: endpoint: median survival time, dose: 3.12 mg/kg/injection, schedule: Q01DX009 (ip), vehicle: saline with Tween-80 108 % of control | endpoint: median survival time, dose: 6.25 mg/kg/injection, schedule: Q01DX009 (ip), vehicle: saline with Tween-80 116 % of control and 100 % of control and 112 % of control | endpoint: median survival time, dose: 12.5 mg/kg/injection, schedule: Q01DX009 (ip), vehicle: saline with Tween-80 113 % of control and 121 % of control and 105 % of control | endpoint: median survival time, dose: 25.0 mg/kg/injection, schedule: Q01DX009 (ip), vehicle: saline with Tween-80 116 % of control and 103 % of control | endpoint: median survival time, dose: 50.0 mg/kg/injection, schedule: Q01DX009 (ip), vehicle: saline with Tween-80 121 % of control and 108 % of control

O=C(O)CC(=O)O.OC(CN=Cc1ccccc1)CN=Cc1ccccc1.[Pt] (stereo not given)
inactive: endpoint: median survival time, dose: 10.0 mg/kg/injection, schedule: Q04DX003 (ip), vehicle: distilled water + Tween-80 103 % of control | endpoint: median survival time, dose: 20.0 mg/kg/injection, schedule: Q04DX003 (ip), vehicle: distilled water + Tween-80 104 % of control | endpoint: median survival time, dose: 40.0 mg/kg/injection, schedule: Q04DX003 (ip), vehicle: distilled water + Tween-80 102 % of control | endpoint: median survival time, dose: 80.0 mg/kg/injection, schedule: Q04DX003 (ip), vehicle: distilled water + Tween-80 116 % of control and 105 % of control | endpoint: median survival time, dose: 160.0 mg/kg/injection, schedule: Q04DX003 (ip), vehicle: distilled water + Tween-80 108 % of control | endpoint: median survival time, dose: 320.0 mg/kg/injection, schedule: Q04DX003 (ip), vehicle: distilled water + Tween-80 109 % of control

COc1ncnc2c1c(C#N)cn2C1OC(CO)C(O)C1O (stereo not given)
inactive: endpoint: mean survival time, dose: 6.25 mg/kg/injection, schedule: Q01DX009 (ip), vehicle: saline 117 % of control | endpoint: mean survival time, dose: 25.0 mg/kg/injection, schedule: Q01DX009 (ip), vehicle: saline 109 % of control | endpoint: mean survival time, dose: 50.0 mg/kg/injection, schedule: Q01DX009 (ip), vehicle: saline 124 % of control | endpoint: mean survival time, dose: 100.0 mg/kg/injection, schedule: Q01DX009 (ip), vehicle: saline 91 % of control

Cc1cc[n+](CC(=O)CCc2ccc(C(=O)C[n+]3ccc(C)cc3)cc2)cc1
inactive: endpoint: mean survival time, dose: 1.5 mg/kg/injection, schedule: Q04DX003 (ip), vehicle: saline 100 % of control | endpoint: mean survival time, dose: 3.0 mg/kg/injection, schedule: Q04DX003 (ip), vehicle: saline 103 % of control | endpoint: mean survival time, dose: 6.0 mg/kg/injection, schedule: Q04DX003 (ip), vehicle: saline 95 % of control

CCSC1=[N+](SCC)CCCS1
inactive: endpoint: mean survival time, dose: 75.0 mg/kg/injection, schedule: Q01DX001 (ip), vehicle: saline 103 % of control

CC(=O)Oc1ccccc1O
inactive: endpoint: median survival time, dose: 12.5 mg/kg/injection, schedule: Q01DX009 (ip), vehicle: saline + Tween-80 + alcohol 96 % of control and 103 % of control | endpoint: median survival time, dose: 25.0 mg/kg/injection, schedule: Q01DX009 (ip), vehicle: saline + Tween-80 + alcohol 101 % of control and 109 % of control

COC(=O)CCC(=O)c1ccc(OC)cc1
inactive: endpoint: mean survival time, dose: 100.0 mg/kg/injection, schedule: Q01DX001 (ip), vehicle: alcohol 92 % of control | endpoint: mean survival time, dose: 200.0 mg/kg/injection, schedule: Q01DX001 (ip), vehicle: alcohol 92 % of control | endpoint: mean survival time, dose: 400.0 mg/kg/injection, schedule: Q01DX001 (ip), vehicle: alcohol 101 % of control

COc1ccccc1NC(=S)NCCO
inactive: [1] 97 % of control | [2] 103 % of control | endpoint: mean survival time, dose: 400.0 mg/kg/injection, schedule: Q01DX009 (ip), vehicle: saline with Tween-80 98 % of control

C#CC(CC(C)CC(C)(C)C)N(C)C (stereo not given)
inactive: [1] 98 % of control

CC(=O)NC1CC(n2cnc3c(=O)[nH]cnc32)OC1C(C)O (stereo not given)
inactive: endpoint: mean survival time, dose: 12.5 mg/kg/injection, schedule: Q01DX005 (ip), vehicle: water 101 % of control | endpoint: mean survival time, dose: 25.0 mg/kg/injection, schedule: Q01DX005 (ip), vehicle: water 98 % of control | endpoint: mean survival time, dose: 50.0 mg/kg/injection, schedule: Q01DX005 (ip), vehicle: water 101 % of control | endpoint: mean survival time, dose: 100.0 mg/kg/injection, schedule: Q01DX005 (ip), vehicle: water 98 % of control | endpoint: mean survival time, dose: 200.0 mg/kg/injection, schedule: Q01DX005 (ip), vehicle: water 92 % of control

CC(=Nc1ccccc1)C1=C(O)C(Cc2ccc(O)c(O)c2)NC1=O (stereo not given)
inactive: endpoint: mean survival time, dose: 50.0 mg/kg/injection, schedule: Q04DX002 (ip), vehicle: saline with Tween-80 103 % of control | endpoint: mean survival time, dose: 100.0 mg/kg/injection, schedule: Q04DX002 (ip), vehicle: saline with Tween-80 103 % of control | endpoint: mean survival time, dose: 200.0 mg/kg/injection, schedule: Q04DX002 (ip), vehicle: saline with Tween-80 100 % of control

CCOP(=S)(OCC)S/C(C(=O)NC)=C(/C)O
inactive: endpoint: mean survival time, dose: 100.0 mg/kg/injection, schedule: Q04DX003 (sc), vehicle: Klucel + Tween-80 96 % of control | endpoint: mean survival time, dose: 200.0 mg/kg/injection, schedule: Q04DX003 (sc), vehicle: Klucel + Tween-80 100 % of control | endpoint: mean survival time, dose: 400.0 mg/kg/injection, schedule: Q04DX003 (sc), vehicle: Klucel + Tween-80 115 % of control | endpoint: mean survival time, dose: 600.0 mg/kg/injection, schedule: Q04DX003 (sc), vehicle: Klucel + Tween-80 96 % of control

O=C(CCl)N1CCC(CC2(c3cc4ccccc4[nH]3)OCCO2)CC1
inactive: endpoint: mean survival time, dose: 50.0 mg/kg/injection, schedule: Q04DX002 (ip), vehicle: other 106 % of control | endpoint: mean survival time, dose: 100.0 mg/kg/injection, schedule: Q04DX002 (ip), vehicle: other 109 % of control | endpoint: mean survival time, dose: 200.0 mg/kg/injection, schedule: Q04DX002 (ip), vehicle: other 91 % of control

Nc1ccc(C(=O)Nc2ccc(OCc3nc(N)nc(N)c3-c3ccc(Cl)cc3)cc2)cc1
inactive: endpoint: mean survival time, dose: 100.0 mg/kg/injection, schedule: Q01DX001 (ip), vehicle: saline with Tween-80 97 % of control | [3] 93 % of control | endpoint: mean survival time, dose: 400.0 mg/kg/injection, schedule: Q01DX001 (ip), vehicle: saline with Tween-80 95 % of control

CCC/C=C/C(O)C(C)C(C)C (stereo not given)
inactive: [4] 103 % of control | [1] 103 % of control | [2] 98 % of control

OC(CN=C/C=C/c1ccccc1)c1ccccc1 (stereo not given)
inactive: [5] 95 % of control | [6] 89 % of control | [7] 92 % of control

OCC(O)C(O)C(OC1OC(CO)C(O)C(O)C1O)C(O)CO (stereo not given)
inactive: [4] 97 % of control | [1] 109 % of control | [2] 106 % of control

O=C(O)c1cnc(Cl)nc1Nc1ccccc1I
inactive: [3] 86 % of control

NC(N)=NC(N)=Nc1cc(Cl)c(Cl)cc1Cl
inactive: [5] 96 % of control | [6] 96 % of control | [7] 98 % of control

CC[NH-].CC[NH-].[Cl][Pt+2][Cl]
inactive: endpoint: mean survival time, dose: 2.5 mg/kg/injection, schedule: Q04DX003 (ip), vehicle: water 115 % of control | endpoint: mean survival time, dose: 5.0 mg/kg/injection, schedule: Q04DX003 (ip), vehicle: water 116 % of control | endpoint: mean survival time, dose: 10.0 mg/kg/injection, schedule: Q04DX003 (ip), vehicle: water 112 % of control

CN(C)N=Nc1ccccc1C(=O)NCC(N)=O
inactive: endpoint: mean survival time, dose: 18.75 mg/kg/injection, schedule: Q01DX009 (ip), vehicle: Klucel (hydroxypropylcellulose) (HPC) 103 % of control and 107 % of control | endpoint: mean survival time, dose: 37.5 mg/kg/injection, schedule: Q01DX009 (ip), vehicle: Klucel (hydroxypropylcellulose) (HPC) 115 % of control and 112 % of control

Cn1c(N)c(C2OC(=O)c3ccccc32)c(=O)n(C)c1=O (stereo not given)
inactive: endpoint: mean survival time, dose: 100.0 mg/kg/injection, schedule: Q04DX002 (ip), vehicle: Klucel (hydroxypropylcellulose) (HPC) 98 % of control | endpoint: mean survival time, dose: 200.0 mg/kg/injection, schedule: Q04DX002 (ip), vehicle: Klucel (hydroxypropylcellulose) (HPC) 98 % of control

COc1cc(C(=O)N/N=C/c2ccc(N(C)C)cc2)cc(OC)c1OC
inactive: [1] 119 % of control | [2] 98 % of control
